Patent publication US20170342061A1 (CHONGQING PHARMACEUTICAL INDUSTRIAL RESEARCH INSTITUTE CO., …, priority 2014, published 2017)

Experiment: Stability testing of crystal form I of Canagliflozin
Type: physicochemical
[1] = placed at 25 ± 2° C. and a humidity of RH92.5% for 30 days
[2] = placed at 40 ± 2° C. for 30 days
[3] = placed at 60 ± 2° C. for 30 days

For Cc1ccc([C@@H]2O[C@H](CO)[C@@H](O)[C@H](O)[C@H]2O)cc1Cc1ccc(-c2ccc(F)cc2)s1 [crystal form I of Canagliflozin, 1-(β-D-glucopyranosyl)-4-methyl-3-[5-(4-fluorophenyl)-2-thienylmethyl]benzene], the “HPLC change before placed” value (before being placed at 25 ± 2° C. and a humidity of RH92.5% for 30 days) was 99.89%, the “HPLC change before placed” value (before being placed at 40 ± 2° C. for 30 days) was 99.89% and the “HPLC change before placed” value (before being placed at 60 ± 2° C. for 30 days) was 99.89%. The stability (overall conclusion from the stability table) was “good stability”, the “HPLC change after placed” value [1] was 99.89% and the crystal form [1] was “Crystal form I”. The “whether the appearance changed” value [1] was “No change”, the “whether there being apparent moisture absorption” value [1] was “No apparent” and the “HPLC change after placed” value [2] was 99.88%. The crystal form [2] was “Crystal form I”, the “whether the appearance changed” value [2] was “No change” and the “whether there being apparent moisture absorption” value [2] was “No apparent”. The “HPLC change after placed” value [3] was 99.87%, the crystal form [3] was “Crystal form I” and the “whether the appearance changed” value [3] was “No change”. The “whether there being apparent moisture absorption” value [3] was “No apparent”.
